Experimental data published in patent US4971968A, “Pyridazinone derivatives and salts thereof” (Mitsubishi Kasei Corporation, priority 1983, dated 1990).

How the values were obtained:
[1] = system: left atrium of guinea pig; assay: Effect on contraction of an isolated left atrium of the guinea pig; details: Cavia porcellus, read-out: Contraction of left atrium of guinea pig, increase; for activation at 30 µg/mL: 3 × 10^-5 g/ml; for activation at 10 µg/mL: 10^-5 g/ml
Protocol: 2. Effect on contraction of an isolated left atrium of the guinea pig
A left atrium was isolated from a male guinea pig with 200-300 g of body weight soon after striking on the back of its head. The mitral orifice was fixed to the bottom of an organ bath filled with 30 ml of Krebs-Henseleit solution maintained at 35° C. A gas mixture comprising 95% of O2 and 5% of CO2 was passed through the Krebs-Henseleit solution in the organ bath. Isometric tension was measured by connecting a left auricle of heart and a transducer by a yarn. A resting tension of 0.5 g was given to the atrium, which was then electrically driven with square pulses with duration of 1 msec and voltage of 1.5 times as much as threshold in the rate of 2 Hz via dipolar platinum electrodes.
After stabilizing the atrium for 30 minutes from its preparation, the compound dissolved in a solvent was added to the organ bath to measure its effect.

[2] = system: papillary muscle of dog; assay: Effect on contraction of an isolated and cross-circulated papillary muscle preparation of the dog; details: Canis lupus familiaris, read-out: Contraction of papillary muscle of dog, increase; for activation at 0.03 mg: 30 μg i.a.; for activation at 0.01 mg: 10 μg i.a.
Protocol: 1. Effect on contraction of an isolated and cross-circulated papillary muscle preparation of the dog
An isolated and cross-circulated papillary muscle preparation of the dog was prepared by Endo and Hashimoto's method (referred to American Journal of Physiology, 218, 1459-1463, 1970). The effect of the compound was measured by closely intraarterially injecting the compound dissolved in a solvent to the papillary muscle for the purpose of recording its effect on contraction of papillary muscle.

[3] = system: Anesthetized dog; assay: Effects on myocardial contraction in anesthetized dogs; type: in vivo, dog (male and female mongrel dogs); details: for Anesthetized dog, CO (cardiac output) increase: aortic blood flow as index
Protocol: 3. Effects on myocardial contraction in anesthetized dogs
Male and female mongrel dogs with body weight of 8-15 kg were used. A dog was anesthetized by intraveneous injection of 30 mg/kg of sodium pentobarbital and practiced artificial respiration. The dog was thoractomized between fourth and fifth costa which was cut off. The pericardium was incised to expose heart. Blood flow through the aorta, which was measured with an electromagnetic blood flowmeter whose probe was attached to the ascending aorta, was used as an approximate index of cardiac output (CO). Left ventricular pressure (LVP) was measured with a Miller Catheter-tip pressure transducer and the first derivative of the LVP (dP/dt) was measured with a differentiater. Contraction of right ventricular muscle (Cont) was determined with a strain-gauge attached to the wall. Systemic blood pressure was measured from the left femoral artery. Heart rate was measured with electrocardiogram (lead II) and a cardiotachometer. The compound dissolved in a solvent was administered intravenously from a left femoral vein.

[4] = Acute toxicity (LD50) for intravenous and oral administration in male mice; details: mouse, in vivo
Protocol: Acute toxicity (LD50) for intravenous and oral administration in male mice was determined by the method of […] and Wilcoxon (referred to Journal of Pharmacology and Experimental Therapeutics, 96, 99-113, 1949).

| SMILES | activation at 30 µg/mL [1] [%] | activation at 10 µg/mL [1] [%] | activation at 0.03 mg [2] [%] | activation at 0.1 mg ([2]; 100 μg i.a.) [%] | Anesthetized dog, Cont (contraction of right ventricular muscle) increase ([3]; 10 μg/kg i.v.) [%] | Anesthetized dog, dP/dt max increase ([3]; 10 μg/kg i.v.) [%] | Anesthetized dog, CO (cardiac output) increase ([3]; 10 μg/kg i.v.) [%] | Anesthetized dog, Cont (contraction of right ventricular muscle) increase ([3]; 30 μg/kg i.v.) [%] | Anesthetized dog, dP/dt max increase ([3]; 30 μg/kg i.v.) [%] | Anesthetized dog, CO (cardiac output) increase ([3]; 30 μg/kg i.v.) [%] | LD50 ([4]; iv) [mg/kg] | LD50 ([4]; po) [mg/kg] | activation at 0.01 mg [2] [%] | Anesthetized dog, Cont (contraction of right ventricular muscle) increase ([3]; 100 μg/kg i.v.) [%] | Anesthetized dog, dP/dt max increase ([3]; 100 μg/kg i.v.) [%] | Anesthetized dog, CO (cardiac output) increase ([3]; 100 μg/kg i.v.) [%] | Anesthetized dog, Cont (contraction of right ventricular muscle) increase ([3]; 3 μg/kg i.v.) [%] | Anesthetized dog, dP/dt max increase ([3]; 3 μg/kg i.v.) [%] | Anesthetized dog, CO (cardiac output) increase ([3]; 3 μg/kg i.v.) [%] | activation at 0.003 mg ([2]; 3 μg i.a.) [%] |
| --- | --- | --- | --- | --- | --- | --- | --- | --- | --- | --- | --- | --- | --- | --- | --- | --- | --- | --- | --- | --- |
| O=C1CCC(c2ccc(Nc3ncccn3)cc2)=NN1 [6-[4-(2'-pyrimidinyl)aminophenyl]-4,5-dihydro-3(2H)-pyridazinone] | 66 | 42 | 5.7 | 15.9 | – | – | – | – | – | – | – | – | – | – | – | – | – | – | – | – |
| O=C1CCC(c2ccc(Nc3ccncc3)cc2)=NN1 [6-[4-(4'-pyridyl)aminophenyl]-4,5-dihydro-3(2H)-pyridazinone] | 138 | 115 | 15.4 | – | 23 | 45 | 13 | 57 | 93 | 28 | 97 | 341 | 13.2 | – | – | – | – | – | – | – |
| CC1CC(c2ccc(Nc3ccncc3)cc2)=NNC1=O (stereo not drawn) [6-[4-(4'-pyridyl)aminophenyl]-4-methyl-4,5-dihydro-3(2H)pyridazinone] | 109 | 85.9 | 50 | – | – | – | – | 21.6 | 29.1 | 8.6 | – | – | 22.6 | 64.0 | 64.7 | 26.7 | – | – | – | – |
| CC1CC(=O)NN=C1c1ccc(Nc2ccncc2)cc1 (stereo not drawn) [6-[4-(4'-pyridyl)aminophenyl]-5-methyl-4,5-dihydro-3(2H)pyridazinone] | 97.9 | 86.6 | – | – | 75.9 | 73.8 | 26.7 | – | – | – | – | – | 38.7 | – | – | – | 13.3 | 14.4 | 14.4 | 28.6 |
